ChEMBL document CHEMBL1667762, “Synthesis, antidepressant and antifungal evaluation of novel 2-chloro-8-methylquinoline amine derivatives” (Eur J Med Chem, 2011)
≈ marks a conversion by molar mass, not a printed value. Calls of active or inactive are those of the source. The calls are words filed in the database; no cut-off is given here.

Tested on: not listed separately
Assay: Antifungal activity against Monascus purpureus MTCC 369 after 72 hrs
Assay type: functional
Settings: not given
Molecule `Cc1cccc2cc(CNc3ccc(F)c(Cl)c3)c(Cl)nc12` has an MIC of 25 µg/mL (≈ 74.6 µM) and an inhibition zone (IZ) of 5.5 mm. `Cc1cccc2cc(CNc3ccc(Br)cc3)c(Cl)nc12` showed an MIC of 100 µg/mL (≈ 276 µM) and an inhibition zone (IZ) of 7 mm. Work on `OC(Cn1cncn1)(Cn1cncn1)c1ccc(F)cc1F` [FLUCONAZOLE] yielded an MIC of 6.25 µg/mL (≈ 20.4 µM) and an inhibition zone (IZ) of 11 mm. In the case of `Cc1cccc2cc(CNc3ccccc3)c(Cl)nc12`, the MIC is reported as 100 µg/mL (≈ 354 µM) and the inhibition zone (IZ) is reported as 7 mm. For `Cc1cccc2cc(CNCc3ccccc3)c(Cl)nc12`, the MIC was 100 µg/mL (≈ 337 µM) and the inhibition zone (IZ) was 7 mm. In the case of `Cc1ccccc1NCc1cc2cccc(C)c2nc1Cl`, the MIC is reported as “inactive” and the “inhibition zone (IZ)” value is reported as “inactive”. In the case of `Cc1cccc2cc(CNc3cccc(Cl)c3)c(Cl)nc12`, the MIC is reported as 50 µg/mL (≈ 158 µM) and the inhibition zone (IZ) is reported as 6.5 mm. With `Cc1cccc2cc(CNc3ccc(F)cc3)c(Cl)nc12` the MIC was 50 µg/mL (≈ 166 µM) and the inhibition zone (IZ) was 8 mm.

Tested on: Aspergillus flavus
Assay: Antifungal activity against Aspergillus flavus MTCC 277 after 72 hrs
Assay type: functional
Settings: not given
With `Cc1cccc2cc(CNc3ccc(F)c(Cl)c3)c(Cl)nc12` the “inhibition zone (IZ)” value was 8.5 mm. For `Cc1cccc2cc(CNc3ccc(Br)cc3)c(Cl)nc12`, the “inhibition zone (IZ)” value was 6 mm. With `OC(Cn1cncn1)(Cn1cncn1)c1ccc(F)cc1F` [FLUCONAZOLE] the “inhibition zone (IZ)” value was 14.5 mm. With `Cc1cccc2cc(CNc3ccccc3)c(Cl)nc12` the “inhibition zone (IZ)” value was 6.5 mm. With `Cc1cccc2cc(CNCc3ccccc3)c(Cl)nc12` the “inhibition zone (IZ)” value was 6 mm. In the case of `Cc1ccccc1NCc1cc2cccc(C)c2nc1Cl`, the “inhibition zone (IZ)” value is reported as 7 mm. For `Cc1cccc2cc(CNc3cccc(Cl)c3)c(Cl)nc12`, the “inhibition zone (IZ)” value was 6 mm. In the case of `Cc1cccc2cc(CNc3ccc(F)cc3)c(Cl)nc12`, the “inhibition zone (IZ)” value is reported as 6 mm.

Same assay, conditions: Aspergillus flavus, MTCC 277, 72 h
In the case of `Cc1cccc2cc(CNc3ccc(F)c(Cl)c3)c(Cl)nc12`, the MIC is reported as 12.5 µg/mL (≈ 37.3 µM). `Cc1cccc2cc(CNc3ccc(Br)cc3)c(Cl)nc12` gave an MIC of 25 µg/mL (≈ 69.1 µM). Molecule `OC(Cn1cncn1)(Cn1cncn1)c1ccc(F)cc1F` [FLUCONAZOLE] has an MIC of 6.25 µg/mL (≈ 20.4 µM). In the case of `Cc1cccc2cc(CNc3ccccc3)c(Cl)nc12`, the MIC is reported as 25 µg/mL (≈ 88.4 µM). For `Cc1cccc2cc(CNCc3ccccc3)c(Cl)nc12`, the MIC was 12.5 µg/mL (≈ 42.1 µM). Molecule `Cc1ccccc1NCc1cc2cccc(C)c2nc1Cl` has an MIC of 100 µg/mL (≈ 337 µM). Molecule `Cc1cccc2cc(CNc3cccc(Cl)c3)c(Cl)nc12` has an MIC of 12.5 µg/mL (≈ 39.4 µM). In the case of `Cc1cccc2cc(CNc3ccc(F)cc3)c(Cl)nc12`, the MIC is reported as 12.5 µg/mL (≈ 41.6 µM).

Tested on: Rattus norvegicus
Assay: Neurotoxicity in rat assessed as impair in motor coordination at 100 mg/kg, ip after 30 mins by rotarod test (reference value: 116.50 +/- 1.18 sec)
Assay type: toxicity, organism-based
Design: dose 100 mg/kg, route intraperitoneal
Settings: in vivo, 0.5 h
Work on `Cc1cccc2cc(CNc3ccc(F)c(Cl)c3)c(Cl)nc12` yielded a Time of 93.67 s. Molecule `Cc1cccc2cc(CNc3ccccc3)c(Cl)nc12` has a Time of 100.33 s. In the case of `Cc1cccc2cc(CNCc3ccccc3)c(Cl)nc12`, the Time is reported as 98.33 s. Molecule `Cc1cccc2cc(CNc3cccc(Cl)c3)c(Cl)nc12` has a Time of 97.83 s. `Cc1cccc2cc(CNc3ccc(F)cc3)c(Cl)nc12` gave a Time of 91.33 s.

Species on record: Rattus norvegicus
Assay: Inhibition of MAO in rat brain homogenate at 0.0005 M using kynuramine as substrate by fluorimetry
Assay type: tissue-based
Settings: not given
In the case of `Cc1cccc2cc(CNc3ccc(F)c(Cl)c3)c(Cl)nc12`, the inhibition is reported as 32.1%. Molecule `Cc1cccc2cc(CNc3cccc(Cl)c3)c(Cl)nc12` has an inhibition of 26.8%. Molecule `Cc1cccc2cc(CNc3ccc(F)cc3)c(Cl)nc12` has an inhibition of 19.6%.

Tested on: Rattus norvegicus
Assay: Antidepressant activity in Albino rat assessed as immobility time at 20 mg/kg, ip by forced swimming test (reference value: 112.4 +/- 2.88 sec)
Assay type: functional
Settings: route intraperitoneal
With `CN(C)CCCN1c2ccccc2CCc2ccc(Cl)cc21` [CLOMIPRAMINE] the Time was 63.4 s.

Tested on: Aspergillus niger
Assay: Antifungal activity against Aspergillus niger MTCC 281 after 72 hrs
Assay type: functional
Settings: not given
With `Cc1cccc2cc(CNc3ccc(F)c(Cl)c3)c(Cl)nc12` the “inhibition zone (IZ)” value was 8.5 mm. With `Cc1cccc2cc(CNc3ccc(Br)cc3)c(Cl)nc12` the “inhibition zone (IZ)” value was 5.5 mm. With `OC(Cn1cncn1)(Cn1cncn1)c1ccc(F)cc1F` [FLUCONAZOLE] the “inhibition zone (IZ)” value was 13.5 mm. In the case of `Cc1cccc2cc(CNc3ccccc3)c(Cl)nc12`, the “inhibition zone (IZ)” value is reported as 6 mm. For `Cc1cccc2cc(CNCc3ccccc3)c(Cl)nc12`, the “inhibition zone (IZ)” value was 5.5 mm. In the case of `Cc1ccccc1NCc1cc2cccc(C)c2nc1Cl`, the “inhibition zone (IZ)” value is reported as 6.5 mm. For `Cc1cccc2cc(CNc3cccc(Cl)c3)c(Cl)nc12`, the “inhibition zone (IZ)” value was 5.5 mm. In the case of `Cc1cccc2cc(CNc3ccc(F)cc3)c(Cl)nc12`, the “inhibition zone (IZ)” value is reported as 6 mm.

Same assay, conditions: Aspergillus niger, MTCC 281, 72 h
`Cc1cccc2cc(CNc3ccc(F)c(Cl)c3)c(Cl)nc12` gave an MIC of 12.5 µg/mL (≈ 37.3 µM). For `Cc1cccc2cc(CNc3ccc(Br)cc3)c(Cl)nc12`, the MIC was 25 µg/mL (≈ 69.1 µM). Molecule `OC(Cn1cncn1)(Cn1cncn1)c1ccc(F)cc1F` [FLUCONAZOLE] has an MIC of 6.25 µg/mL (≈ 20.4 µM). Work on `Cc1cccc2cc(CNc3ccccc3)c(Cl)nc12` yielded an MIC of 25 µg/mL (≈ 88.4 µM). Molecule `Cc1cccc2cc(CNCc3ccccc3)c(Cl)nc12` has an MIC of 12.5 µg/mL (≈ 42.1 µM). `Cc1ccccc1NCc1cc2cccc(C)c2nc1Cl` gave an MIC of 100 µg/mL (≈ 337 µM). With `Cc1cccc2cc(CNc3cccc(Cl)c3)c(Cl)nc12` the MIC was 12.5 µg/mL (≈ 39.4 µM). Molecule `Cc1cccc2cc(CNc3ccc(F)cc3)c(Cl)nc12` has an MIC of 12.5 µg/mL (≈ 41.6 µM).

Species on record: Rattus norvegicus
Assay: Neurotoxicity in rat assessed as impair in motor coordination at after 30 mins by rotarod test (reference value: 116.50 +/- 1.18 sec)
Assay type: toxicity, organism-based
Settings: in vivo, 0.5 h
With `CN(C)CCCN1c2ccccc2CCc2ccc(Cl)cc21` [CLOMIPRAMINE] the Time was 110.83 s.

Tested on: Penicillium citrinum
Assay: Antifungal activity against Penicillium citrinum NCIM 768 after 72 hrs
Assay type: functional
Settings: not given
In the case of `Cc1cccc2cc(CNc3ccc(F)c(Cl)c3)c(Cl)nc12`, the “inhibition zone (IZ)” value is reported as 6 mm. In the case of `Cc1cccc2cc(CNc3ccc(Br)cc3)c(Cl)nc12`, the “inhibition zone (IZ)” value is reported as 6.5 mm. For `OC(Cn1cncn1)(Cn1cncn1)c1ccc(F)cc1F` [FLUCONAZOLE], the “inhibition zone (IZ)” value was 12 mm. With `Cc1cccc2cc(CNc3ccccc3)c(Cl)nc12` the “inhibition zone (IZ)” value was 6 mm. With `Cc1cccc2cc(CNCc3ccccc3)c(Cl)nc12` the “inhibition zone (IZ)” value was 6.5 mm. For `Cc1ccccc1NCc1cc2cccc(C)c2nc1Cl`, the MIC was “inactive” and the “inhibition zone (IZ)” value was “inactive”. For `Cc1cccc2cc(CNc3cccc(Cl)c3)c(Cl)nc12`, the “inhibition zone (IZ)” value was 5.5 mm. With `Cc1cccc2cc(CNc3ccc(F)cc3)c(Cl)nc12` the “inhibition zone (IZ)” value was 7 mm.

Same assay, conditions: Penicillium citrinum, NCIM 768, 72 h
`Cc1cccc2cc(CNc3ccc(F)c(Cl)c3)c(Cl)nc12` gave an MIC of 25 µg/mL (≈ 74.6 µM). With `Cc1cccc2cc(CNc3ccc(Br)cc3)c(Cl)nc12` the MIC was 100 µg/mL (≈ 276 µM). `OC(Cn1cncn1)(Cn1cncn1)c1ccc(F)cc1F` [FLUCONAZOLE] gave an MIC of 6.25 µg/mL (≈ 20.4 µM). For `Cc1cccc2cc(CNc3ccccc3)c(Cl)nc12`, the MIC was 100 µg/mL (≈ 354 µM). Work on `Cc1cccc2cc(CNCc3ccccc3)c(Cl)nc12` yielded an MIC of 100 µg/mL (≈ 337 µM). For `Cc1cccc2cc(CNc3cccc(Cl)c3)c(Cl)nc12`, the MIC was 25 µg/mL (≈ 78.8 µM). For `Cc1cccc2cc(CNc3ccc(F)cc3)c(Cl)nc12`, the MIC was 50 µg/mL (≈ 166 µM).

Species on record: Rattus norvegicus
Settings: Brain, 5 uM
Description: Inhibition of MAO in rat brain homogenate at 5 uM using kynuramine as substrate by fluorimetry
With `N[C@@H]1C[C@H]1c1ccccc1.N[C@H]1C[C@@H]1c1ccccc1` the inhibition was 91.6%.

Tested on: Rattus norvegicus
Assay: Antidepressant activity in Albino rat assessed as immobility time at 100 mg/kg, ip by forced swimming test (reference value: 112.4 +/- 2.88 sec)
Assay type: functional
Settings: route intraperitoneal
Molecule `Cc1cccc2cc(CNc3ccc(F)c(Cl)c3)c(Cl)nc12` has a Time of 74.2 s. `Cc1cccc2cc(CNc3ccccc3)c(Cl)nc12` showed a Time of 103.2 s. `Cc1cccc2cc(CNCc3ccccc3)c(Cl)nc12` showed a Time of 78.4 s. `Cc1cccc2cc(CNc3cccc(Cl)c3)c(Cl)nc12` showed a Time of 76.2 s. Molecule `Cc1cccc2cc(CNc3ccc(F)cc3)c(Cl)nc12` has a Time of 80.4 s.
